In US12123023B2, “Methods for generating stem cell-derived β cells and methods of use thereof” (President and Fellows of Harvard College, priority 2014, dated 2024):

Test system: SC-β cells
Assay: FACS analysis of marker expression in cells differentiated to SC-β cells (end of Step 6, versus DMSO control)
Type: cell-based, human
Description: FIG. 4A is a schematic illustrating an exemplary method for generating SC-β cells according to an embodiment of the present invention, e.g., by contacting a cell population directed to differentiate to SC-β cells under conditions that promote cell clustering with an agent that decreases the level and/or activity of rho-associated protein kinase (Rock inhibitor), a TGF-β superfamily member (e.g., Activin A), and a protein kinase inhibitor (e.g., staurosporine) during the steps indicated.
The SC-β cells generated in accordance with the methods of the present invention can be used in various assays to identify novel drugs that improve β cell function, survival, or proliferation, cell therapies (e.g., for treating diabetes and/or metabolic disorders), and in the construction of artificial islets and/or an artificial pancreas.

[1] = S4 cells contacted during Step 5, cells at end of Step 6, versus control (DMSO)

CN[C@@H]1C[C@H]2O[C@@](C)([C@@H]1OC)n1c3ccccc3c3c4c(c5c6ccccc6n2c5c31)C(=O)NC4 [staurosporine]
endocrine population purity (FACS) [1]: near pure endocrine population
percentage of NKX6.1+, C-Peptide+ cells (FACS) [1]: higher percentage of NKX6.1+, C-Peptide+ cells
marker expression at differentiation stages S4, S5, S6 (FACS) (S4 cells contacted during Step 5 together with the Rock inhibitor, in the absence of Activin A): maintain marker expression
